Series [1] relates to HPF normal human epithelial lung fibroblasts. Briefly: MTT assay, nontumor HPF cells. Format: cell-based. Particulars: Homo sapiens, Fibroblast; MTT, untreated control = 100% viability; read-out: IC50, growth inhibition of HPF non-tumor cells. An excerpt:
(§1) Only MA conjugates 7 and 10 were selected to compare the growth inhibitory effects in the three nontumor cell lines (HPF, IEC-18, and WRL68) versus the three cancer cell lines (B16–F10, HT29, and Hep G2). Therefore, the cytotoxic effects on B16–F10 murine melanoma cells were compared with those of HPF normal human epithelial lung fibroblasts, with similar tissue. Similarly, the cytotoxic effects of these conjugates on HT29 colon cancer cells and Hep G2 hepatoma cells were compared with those of nontumor cells of the same tissue, such as IEC-18 normal rat ileum cells and WRL68 normal human embryo liver cells, respectively.
(§2) […] ATTC HTB-38), Hep G2 human hepatocyte carcinoma cells (ECACC 85011430), nontumor human epithelial lung fibroblast cells HPF (ScienCell catalog (cat.) no. 3300), nontumor rat ileum cells IEC-18 (ECACC no. 88011801), and nontumor human embryo liver cells (ECACC 89121403) were cultured in DMEM medium supplemented with 2 mM glutamine, 10% heat-inactivated fetal bovine serum (FCS), 10.000 units/mL penicillin, and […]. These cells were incubated at 37 °C in an atmosphere of 5% CO2 and 95% humidity. The culture media were changed every 48 h, and the confluent cultures were separated with a trypsin solution (0.25% EDTA). Subconfluent monolayer cells were used in all experiments. All cell lines used were provided by the cell bank of the University of Granada (Spain).
(§3) The effect of the synthesized compounds on the viability of tumor cells was assessed using an MTT assay, based on the ability of living cells to cleave the tetrazolium ring, thus producing formazan, which absorbs at 570 nm. The MA conjugates (1–12) were assayed against the selected cancer cell lines. For an evaluation of the cytotoxic effects of these compounds, the cells were seeded in 96-well plates at an initial density of 5 × 10^3 B16–F10 cells, 6 × 10^3 HT29 cells, 15 × 10^3 Hep G2 cells, 8 × 10^3 HPF cells, 15 × 10^3 IEC-18 cells, and 11 × 10^3 WRL68 cells, per well. After incubation for 24 h, the cells were treated with the synthesized compounds in triplicate, at different concentrations (0–200 μg/mL), and incubated for 72 h. Thereafter, 100 μL of MTT solution (0.5 mg/mL) were added to each well. After 2 h of incubation, the cells were washed twice with phosphate buffered saline (PBS), and the formazan was resuspended in 100 μL of DMSO. Relative cell viability, with respect to untreated control cells, was measured by absorbance at 550 nm on an ELISA plate reader (Tecan Sunrise MR20-301, TECAN, Austria). […] These experiments were measured and compared to the control after 72 h of treatment.
(Tetrazolium dyes change colour on reduction, which living cells bring about.)

Series [2] is described as follows: MTT assay, nontumor HPF cells. Format: cell-based, human. Particulars: human, HPF normal lung fibroblast cells; at the compound's IC50 concentration for B16–F10 cancer cells; read-out: percent viability (% viability) of HPF cells.
Source text: as §1, §2, §3

Series [3] concerns IEC-18 normal rat ileum cells. The experiment in a line: MTT assay, nontumor IEC-18 cells. Format: cell-based. Particulars: Rattus norvegicus, IEC-18; MTT, untreated control = 100% viability; read-out: IC50, growth inhibition of IEC-18 non-tumor cells.
Source text: as §1, §2, §3

Series [4] can be described thus: MTT assay, nontumor IEC-18 cells. Conditions: rat, IEC-18 normal ileum cells; at the compound's IC50 concentration for HT29 cancer cells. Format: cell-based, rat.
Source text: as §1, §2, §3

Series [5] is described as follows: MTT assay, statements over the three nontumor cell lines. Format: cell-based. Conditions: human, rat, at the IC50 concentration of the respective cancer cell line; over HPF, IEC-18, WRL68; read-out: cell viability percentage of nontumor cells.
Source text: as §1
The effect of the synthesized compounds on the viability of tumor cells was assessed using an MTT assay, based on the ability of living cells to cleave the tetrazolium ring, thus producing formazan, which absorbs at 570 nm. The MA conjugates (1–12) were assayed against the selected cancer cell lines. […] Relative cell viability, with respect to untreated control cells, was measured by absorbance at 550 nm on an ELISA plate reader (Tecan Sunrise MR20-301, TECAN, Austria). […] These experiments were measured and compared to the control after 72 h of treatment.

Series [6] has as its system WRL68 normal human embryo liver cells. The experiment in a line: MTT assay, nontumor WRL68 cells. Conditions: Homo sapiens, WRL68; MTT, untreated control = 100% viability; read-out: IC50, growth inhibition of WRL68 non-tumor cells. Format: cell-based.
Source text: as §1, §2, §3

Series [7] is described as follows: MTT assay, nontumor WRL68 cells. Format: cell-based, human. Particulars: human, WRL68 normal embryo liver cells; at the compound's IC50 concentration for Hep G2 cancer cells.
Source text: as §1, §2, §3

SMILES strings stand for the structures.

For the molecule `CC1(C)CC[C@]2(C(=O)O)CC[C@]3(C)C(=CC[C@@H]4[C@@]5(C)C[C@@H](OC(=O)c6cc7ccccc7oc6=O)[C@H](OC(=O)c6cc7ccccc7oc6=O)C(C)(C)[C@@H]5CC[C@]43C)[C@@H]2C1` [Compound 10], the IC50 (commonly the concentration that gives 50% inhibition) in series [1] was 24.5 ± 1.9 µM; in series [3], 7.4 ± 0.7 µM; in series [6] it was 6.2 µM. In addition, the viability (commonly a per cent measure of how many cells are alive, often set against a control) at 72 h in series [2] is 92.9 ± 2.9%; in series [4], 89.3 ± 2.2%; in series [5], 90%; in series [7], 87.4 ± 1.7%.

Consider `CC1(C)CC[C@]2(C(=O)NCCCNC(=O)/C=C/c3ccc(O)cc3)CC[C@]3(C)C(=CC[C@@H]4[C@@]5(C)C[C@@H](O)[C@H](O)C(C)(C)[C@@H]5CC[C@]43C)[C@@H]2C1` [Compound 7, 2α,3β-Dihydroxy-N-(3′-((E)-3″-(4‴-hydroxyphenyl)acrylamido)propyl)olean-12-en-28-amide], for which the concentration for half-maximal inhibition (IC50) in series [1] was determined as 38.8 ± 1.3 µM; in series [3], 19.6 ± 0.3 µM; in series [6] it was 16.3 ± 0.9 µM. The viability at 72 h in series [2] is 76.9 ± 2.9%; in series [4], 88 ± 0.6%; in series [5], 61 to 88%; in series [7] it was 61.4 ± 1.3%.

These data come from PMC8476055, “Synthesis and Biological Activity of Triterpene–Coumarin Conjugates” (Journal of Natural Products, 2021).
